Laboratory results as given in US20090118282A1, “Compounds and methods for treatment of amyloid-beta-peptide related disorders” (priority 2005, published 2009).
Where a name gives a salt, the structure may show the parent alone.

The compounds below were run on Aβ 40 production in HEK-293 cells overexpressing swAPP751 (assay: Inhibition of Aβ 40 production in HEK-293 cells overexpressing swAPP751 (sandwich ELISA)). Conditions: Homo sapiens, HEK293, 7 hours incubation.
Type: cell-based
Method: An exemplary assay for the analysis of inhibition of beta-secretase activity utilizes the human embryonic kidney cell line HEK-293 (ATCC Accession No. CRL-1573) stably transfected with APP751 containing the naturally occurring double mutation […] to Asn651Leu652 (numbered for APP751), commonly called the “Swedish mutation” and shown to overproduce Aβ 40 and Aβ 42 (Citron et. al., 1992, Nature 360:672-674). The cells were plated in 10 cm plates and in Dulbecco's Modified Eagle's medium (DMEM, Sigma D-6546) containing 10% fetal bovine serum. After cells are established (3 days post plating), cells are incubated in the presence/absence of the inhibitory compound (diluted in DMSO) at the desired concentration, generally from 0.2 to 20 μM, and with a final concentration of DMSO of 0.1%. Cells were incubated for 7 hours in the presence of phosphoramidon (1 μM) (Sigma). Media and cell lysates were collected, centrifuged, normalized to total protein and assayed for Aβ 40 and Aβ 42 by sandwich ELISA according to the manufacturer's instructions (Biosource International). For Aβ 42 detection, samples are concentrated on YM3 Microcon columns (Millipore). […] Aβ levels are determined by the difference between the Aβ values for the compound treatment and baseline periods. Dose response curves are plotted as percent inhibition versus compound concentration.

Row | SMILES | IC50 [µM]
1 | FC(F)(F)c1ccc2c(SCCCCCOc3ccc(CN4CCNCC4)cc3)ccnc2c1 [Compound 1, 4-(5-(4-((piperazin-1-yl)methyl)phenoxy)pentylthio)-7-(trifluoromethyl)quinoline trihydrochloride] | 11.6
2 | CCN(CC)C(=O)N1CCN(Cc2ccc(OCCCCCSc3ccnc4cc(C(F)(F)F)ccc34)cc2)CC1 [Compound 2, 4-((4-(5-(7-(trifluoromethyl)quinolin-4-ylthio)pentyloxy)phenyl)methyl)-N,N-diethylpiperazine-1-carboxamide dihydrochloride] | 2.4
3 | CC(C)(C)C(=O)N1CCN(Cc2ccc(OCCCCCSc3ccnc4cc(C(F)(F)F)ccc34)cc2)CC1 [Compound 3, 1-(4-((4-(5-(7-(trifluoromethyl)quinolin-4-ylthio)pentyloxy)phenyl)methyl)piperazin-1-yl)-2,2-dimethylpropan-1-one dihydrochloride] | 1.9
4 | FC(F)(F)c1ccc2c(SCCCCCOc3ccc(CN4CCCCC4)cc3)ccnc2c1 [Compound 5, 4-(5-(4-((piperidin-1-yl)methyl)phenoxy)pentylthio)-7-(trifluoromethyl)quinoline dihydrochloride] | 5.16
5 | FC(F)(F)c1ccc2c(SCCCCCOc3ccc(CN4CCOCC4)cc3)ccnc2c1 [Compound 8, 4-(5-(4-(morpholinomethyl)phenoxy)pentylthio)-7-(trifluoromethyl)quinoline dihydrochloride] | 5.13
6 | FC(F)(F)c1ccc2c(SCCCCCOc3ccc(CN4CCCCC4)cc3Cl)ccnc2c1 [Compound 10, 4-(5-(2-Chloro-4-((piperidin-1-yl)methyl)phenoxy)pentylthio)-7-(trifluoromethyl)quinoline dihydrochloride] | 8.5
7 | O=[N+]([O-])c1cc(CN2CCCCC2)ccc1OCCCCCSc1ccnc2cc(C(F)(F)F)ccc12 [Compound 11, 4-(5-(2-nitro-4-((piperidin-1-yl)methyl)phenoxy)pentylthio)-7-(trifluoromethyl)quinoline dihydrochloride] | 2.45
8 | OCc1ccc(OCCCCCSc2ccnc3cc(C(F)(F)F)ccc23)cc1 [Compound 12, (4-(5-(7-(trifluoromethyl)quinolin-4-ylthio)pentyloxy)phenyl)methanol hydrochloride] | 7.3
9 | Nc1cc(CN2CCCCC2)ccc1OCCCCCSc1ccnc2cc(C(F)(F)F)ccc12 [Compound 13, 2-(5-(7-(Trifluoromethyl)quinolin-4-ylthio)pentyloxy)-5-((piperidin-1-yl)methyl)benzenamine trihydrochloride] | 8.26
10 | CCOC(=O)[C@H](Cc1ccc(OCCCCCSc2ccnc3cc(C(F)(F)F)ccc23)cc1)NC(C)=O [Compound 14, (S)-ethyl 3-(4-(5-(7-(trifluoromethyl)quinolin-4-ylthio)pentyloxy)phenyl)-2-acetamidopropanoate hydrochloride] | 0.72
11 | CCn1ncc2c(OCCCCCSc3ccnc4cc(C(F)(F)F)ccc34)ccnc21 [Compound 19, 4-(5-(1-Ethyl-1H-pyrazolo[3,4-b]pyridin-4-yloxy)pentylthio)-7-(trifluoromethyl)quinoline dihydrochloride] | 15.5
12 | COc1cc(CN2CCOCC2)ccc1OCCCCCOc1ccnc2cc(Cl)ccc12 [Compound 22, 4-(5-(2-Methoxy-4-(morpholinomethyl)phenoxy)pentyloxy)-7-chloroquinoline dihydrochloride] | 9.3
13 | Clc1ccc2c(OCCCCCOc3ccc(CN4CCOCC4)cc3)ccnc2c1 [Compound 23, 4-(5-(4-(morpholinomethyl)phenoxy)pentyloxy)-7-chloroquinoline dihydrochloride] | 2.5
14 | COc1cc(CN2CCOCC2)ccc1OCCCCCSc1ccnc2cc(C(F)(F)F)ccc12 [Compound 24, 4-(5-(2-methoxy-4-(morpholinomethyl)phenoxy)pentylthio)-7-(trifluoromethyl)quinoline dihydrochloride] | 9.9
